Key:
[1] = tested on: Chinese Hamster Pulmonary Line DC-3F/AD; assay: Increase in the cytotoxicity of actinomycin D on the Chinese hamster pulmonary line DC-3F/AD; type: cell-based; details: 4 days;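 further: DC-3F/AD is an extremely resistant cell line whose resistance factor exceeds 10,000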
Text: The cytotoxic agent used was actinomycin D.
Line DC-3F/AD is an extremely resistant line. Its resistance factor is higher than 10,000.

line DC-3F/AD = assay: Flow cytometry, increase in fluorescence of ADR on the line DC-3F/AD; type: cell-based, Chinese Hamster; details: ADR 50 μM, 5 h
Experimental: (§1) By measuring that fluorescence it is possible to obtain a relative measurement of the intracellular concentration of ADR.
(§2) […] After 5 hours' incubation, the intracellular uptake of adriamycin was evaluated by FCM.
(§3) The analysis of each of the samples was carried out on a total of 10,000 cells at a speed of 1000 cells/sec.
(§4) The results were presented in the form of linear histograms of the intracellular ADR fluorescence.
(§5) Expression of the Results
(§6) For each of the histograms, the channel mean fluorescence was determined by the apparatus information system. For all experiments:
(§7) A negative control (cells without ADR) fixed the autofluorescence threshold.
(§8) A positive control (cells with ADR) determined the MEAN value=MN1.
(§9) The "test" tubes (cells with ADR and with compound) were used to determine, for each of the compounds and at each of the concentrations, the MEAN values=MN2.
(§10) The results are expressed in the form of variations from the mean fluorescence obtained for each of the "test" tubes (MN2) in relation to the mean fluorescence obtained with the […] (MNl) : VAR-MEAN=MN2 -MN1. The parameter expressed is thus the increase in the fluorescence of adriamycin in the presence of the tested compounds.

[2] = tested on: murine leukaemia P 388/ADR 10; assay: Evaluation of the increase in cytotoxicity of adriamycin on the line P 388/ADR-10 in vitro (reversion factor); type: cell-based; details: adriamycin, P 388/ADR-10, 48 h, TOX = toxic
Experimental: In this study, the cytotoxicity of adriamycin was measured in the absence and in the presence of the reversing compound.
The compounds tested for their capacity to reverse MDR are added at the same time as the cytotoxic agent. The cells are then incubated for 48 hours.

line P 388/ADR 10 = assay: Flow cytometry, increase in fluorescence of ADR on the line P 388/ADR 10; type: cell-based, murine; details: ADR 50 μM, 5 h
Experimental: as §1, §2, §3, §4, §5, §6, §7, §8, §9, §10

**Q.** With CCCCc1oc2ccccc2c1C(=O)c1cc(I)c(OCCN(CC)CC)c(I)c1 [AMIODARONE, reference compound] as the compound, how does the “Reversion Factor (RF)” value ([1]; compound 5 μM) read?
**A.** 298

**Q.** And the “Reversion Factor (RF)” value ([1]; compound 10 μM)?
**A.** 388

**Q.** And the “Reversion Factor (RF)” value ([1]; compound 20 μM)?
**A.** TOX

**Q.** And the “Increase in fluorescence of ADR (VAR-MEAN = MN2 - MN1)” value (“Increase in fluorescence of ADR” below) (line DC-3F/AD; compound 2 μM)?
**A.** 8.80

**Q.** And the “Increase in fluorescence of ADR” value (line DC-3F/AD; compound 5 μM)?
**A.** 16.65

**Q.** What about the “Increase in fluorescence of ADR” value (line DC-3F/AD; compound 10 μM) of the same compound?
**A.** 21.55

**Q.** And the “Increase in fluorescence of ADR” value (line DC-3F/AD; compound 20 μM)?
**A.** 26.35

**Q.** And the “Reversion Factor (RF)” value ([2]; compound 2.5 μM)?
**A.** 37.7

**Q.** And the “Reversion Factor (RF)” value ([2]; compound 5 μM)?
**A.** 104.7

**Q.** And the “Reversion Factor (RF)” value ([2]; compound 10 μM)?
**A.** TOX

**Q.** What about the “Increase in fluorescence of ADR” value (line P 388/ADR 10; compound 2 μM) of the same compound?
**A.** 33.40

**Q.** And the “Increase in fluorescence of ADR” value (line P 388/ADR 10; compound 5 μM)?
**A.** 65.25

**Q.** And the “Increase in fluorescence of ADR” value (line P 388/ADR 10; compound 10 μM)?
**A.** 76.33

**Q.** And the “Increase in fluorescence of ADR” value (line P 388/ADR 10; compound 20 μM)?
**A.** 95.85

**Q.** For C=CCNc1nc(NCC=C)nc(NC2CCN(CC(c3ccccc3)c3ccccc3)CC2)n1 [Example 3, 4-[4,6-bis(allylamino)-2-s-triazinyl]amino-1-(2,2diphenylethyl)piperidine], which “Reversion Factor (RF)” value ([1]; compound 2.5 μM) is on record?
**A.** 38

**Q.** What about the “Reversion Factor (RF)” value ([1]; compound 5 μM) of the same compound?
**A.** 104

**Q.** What about the “Reversion Factor (RF)” value ([1]; compound 10 μM) of the same compound?
**A.** 240

**Q.** What about the “Increase in fluorescence of ADR” value (line DC-3F/AD; compound 2 μM) of the same compound?
**A.** 8.0

**Q.** What about the “Increase in fluorescence of ADR” value (line DC-3F/AD; compound 5 μM) of the same compound?
**A.** 19.9

**Q.** What about the “Increase in fluorescence of ADR” value (line DC-3F/AD; compound 10 μM) of the same compound?
**A.** 21.6

**Q.** What about the “Increase in fluorescence of ADR” value (line DC-3F/AD; compound 20 μM) of the same compound?
**A.** 19.3

**Q.** And the “Reversion Factor (RF)” value ([2]; compound 2.5 μM)?
**A.** 39

**Q.** What about the “Reversion Factor (RF)” value ([2]; compound 5 μM) of the same compound?
**A.** 70

**Q.** What about the “Reversion Factor (RF)” value ([2]; compound 10 μM) of the same compound?
**A.** 134.8

**Q.** What about the “Increase in fluorescence of ADR” value (line P 388/ADR 10; compound 2 μM) of the same compound?
**A.** 29.9

**Q.** And the “Increase in fluorescence of ADR” value (line P 388/ADR 10; compound 5 μM)?
**A.** 46.2

**Q.** And the “Increase in fluorescence of ADR” value (line P 388/ADR 10; compound 10 μM)?
**A.** 66.0

**Q.** And the “Increase in fluorescence of ADR” value (line P 388/ADR 10; compound 20 μM)?
**A.** 73.1

**Q.** How did the “Reversion Factor (RF)” value ([1]; compound 5 μM) turn out when C=CCNc1nc(NCC=C)nc(N2CCC(NCC(c3ccccc3)c3ccccc3)CC2)n1 [Example 5, 1-[4,6-bis(allylamino)-2-s-triazinyl]-4-(2,2-diphenylethylamino)piperidine] was run?
**A.** 658

**Q.** And the “Reversion Factor (RF)” value ([1]; compound 10 μM)?
**A.** 1504

**Q.** And the “Reversion Factor (RF)” value ([1]; compound 20 μM)?
**A.** TOX

**Q.** What about the “Increase in fluorescence of ADR” value (line DC-3F/AD; compound 2 μM) of the same compound?
**A.** 15.5

**Q.** And the “Increase in fluorescence of ADR” value (line DC-3F/AD; compound 5 μM)?
**A.** 31.3

**Q.** What about the “Increase in fluorescence of ADR” value (line DC-3F/AD; compound 10 μM) of the same compound?
**A.** 34.65

**Q.** What about the “Increase in fluorescence of ADR” value (line DC-3F/AD; compound 20 μM) of the same compound?
**A.** 37.9

**Q.** And the “Reversion Factor (RF)” value ([2]; compound 2.5 μM)?
**A.** 100

**Q.** What about the “Reversion Factor (RF)” value ([2]; compound 5 μM) of the same compound?
**A.** 189

**Q.** What about the “Reversion Factor (RF)” value ([2]; compound 10 μM) of the same compound?
**A.** 277.4

**Q.** And the “Increase in fluorescence of ADR” value (line P 388/ADR 10; compound 2 μM)?
**A.** 45.25

**Q.** What about the “Increase in fluorescence of ADR” value (line P 388/ADR 10; compound 5 μM) of the same compound?
**A.** 60.7

**Q.** And the “Increase in fluorescence of ADR” value (line P 388/ADR 10; compound 10 μM)?
**A.** 79.47

**Q.** What about the “Increase in fluorescence of ADR” value (line P 388/ADR 10; compound 20 μM) of the same compound?
**A.** 76.25

**Q.** What does the source list for C=CCNc1nc(NCC=C)nc(N2CCC(NCCC(c3ccccc3)c3ccccc3)CC2)n1 [Example 6, 1-[4,6-bis(allylamino)-2-s-triazinyl]-4-(3,3-diphenylpropylamino)-piperidine]?
**A.** Reversion Factor (RF) ([1]; compound 2.5 μM): < 16.5; Reversion Factor (RF) ([1]; compound 5 μM): 220; Reversion Factor (RF) ([1]; compound 10 μM): TOX; Reversion Factor (RF) ([1]; compound 20 μM): TOX; Increase in fluorescence of ADR (VAR-MEAN = MN2 - MN1) (line DC-3F/AD; compound 2 μM): 3.9; Increase in fluorescence of ADR (VAR-MEAN = MN2 - MN1) (line DC-3F/AD; compound 5 μM): 21.5; Increase in fluorescence of ADR (VAR-MEAN = MN2 - MN1) (line DC-3F/AD; compound 10 μM): 29.75; Increase in fluorescence of ADR (VAR-MEAN = MN2 - MN1) (line DC-3F/AD; compound 20 μM): TOX; Reversion Factor (RF) ([2]; compound 2.5 μM): 54.4; Reversion Factor (RF) ([2]; compound 5 μM): TOX; Reversion Factor (RF) ([2]; compound 10 μM): TOX; Increase in fluorescence of ADR (VAR-MEAN = MN2 - MN1) (line P 388/ADR 10; compound 2 μM): 32.9; Increase in fluorescence of ADR (VAR-MEAN = MN2 - MN1) (line P 388/ADR 10; compound 5 μM): 60.1; Increase in fluorescence of ADR (VAR-MEAN = MN2 - MN1) (line P 388/ADR 10; compound 10 μM): 55.8; Increase in fluorescence of ADR (VAR-MEAN = MN2 - MN1) (line P 388/ADR 10; compound 20 μM): TOX

— US5225411A, “Disubstituted polymethyleneimines” (priority 1990, dated 1993)
